Values quoted from earlier work in patent publication US20140212515A1, “COMPOSITION AND METHODS FOR OPTIMIZING HEALTH OF CANCER PATIENTS BY THE ADMINISTRATION OF SODIUM SELENITE AND VITAMIN K3” (priority 2013, published 2014).

Tested on: rat pancreatic cancer cells

In the case of `CC1=CC(=O)c2ccccc2C1=O` [Menadione, 2-Methyl-1,4-Napthoquinone], the “proliferation of rat pancreatic cancer cells” value is listed as “inhibit the proliferation”.
